Results: ChEMBL document CHEMBL5055675, “Apoptosis Inducing 1,3,4-Oxadiazole Conjugates of Capsaicin: Their In Vitro Antiproliferative and In Silico Studies” (ACS Med Chem Lett, 2021)
Activity calls are given as the source filed them. The rule behind the calls is not given here.

Assays:
SN12C = experiment: Antiproliferative activity against human SN12C cells assessed as cell growth at 10 uM incubated for 48 hrs by sulforhodamine B assay relative to control; format: functional; conditions: read-out: Activity
HCC 2998 = experiment: Antiproliferative activity against human HCC 2998 cells assessed as cell growth at 10 uM incubated for 48 hrs by sulforhodamine B assay relative to control; format: functional; conditions: read-out: Activity
HCT-116 = experiment: Antiproliferative activity against human HCT-116 cells assessed as cell growth at 10 uM incubated for 48 hrs by sulforhodamine B assay relative to control; format: functional; conditions: read-out: Activity
NCI-H322M = experiment: Antiproliferative activity against human NCI-H322M cells assessed as cell growth at 10 uM incubated for 48 hrs by sulforhodamine B assay relative to control; format: functional; conditions: read-out: Activity
OVCAR-8 = experiment: Antiproliferative activity against human OVCAR-8 cells assessed as cell growth at 10 uM incubated for 48 hrs by sulforhodamine B assay relative to control; format: functional; conditions: read-out: Activity
SK-MEL-2 = experiment: Antiproliferative activity against human SK-MEL-2 cells assessed as cell growth at 10 uM incubated for 48 hrs by sulforhodamine B assay relative to control; format: functional; conditions: read-out: Activity
NCI-H460 [1] = experiment: Antiproliferative activity against human NCI-H460 cells assessed as cell growth at 10 uM incubated for 48 hrs by sulforhodamine B assay relative to control; format: functional; conditions: read-out: Activity
HT-29 = experiment: Antiproliferative activity against human HT-29 cells assessed as cell growth at 10 uM incubated for 48 hrs by sulforhodamine B assay relative to control; format: functional; conditions: read-out: Activity
SR = experiment: Antiproliferative activity against human SR cells assessed as cell growth at 10 uM incubated for 48 hrs by sulforhodamine B assay relative to control; format: functional; conditions: read-out: Activity
MDA-MB-231 = experiment: Antiproliferative activity against human MDA-MB-231/ATCC cells assessed as cell growth at 10 uM incubated for 48 hrs by sulforhodamine B assay relative to control; format: functional; conditions: read-out: Activity
UACC-62 = experiment: Antiproliferative activity against human UACC-62 cells assessed as cell growth at 10 uM incubated for 48 hrs by sulforhodamine B assay relative to control; format: functional; conditions: read-out: Activity
SK-MEL-5 = experiment: Antiproliferative activity against human SK-MEL-5 cells assessed as cell growth at 10 uM incubated for 48 hrs by sulforhodamine B assay relative to control; format: functional; conditions: read-out: Activity
MOLT-4 = experiment: Antiproliferative activity against human MOLT-4 cells assessed as cell growth at 10 uM incubated for 48 hrs by sulforhodamine B assay relative to control; format: functional; conditions: read-out: Activity
UACC-257 = experiment: Antiproliferative activity against human UACC-257 cells assessed as cell growth at 10 uM incubated for 48 hrs by sulforhodamine B assay relative to control; format: functional; conditions: read-out: Activity
SNB-75 = experiment: Antiproliferative activity against human SNB-75 cells assessed as cell growth at 10 uM incubated for 48 hrs by sulforhodamine B assay relative to control; format: functional; conditions: read-out: Activity
SK-OV-3 = experiment: Antiproliferative activity against human SK-OV-3 cells assessed as cell growth at 10 uM incubated for 48 hrs by sulforhodamine B assay relative to control; format: functional; conditions: read-out: Activity
IGROV-1 = experiment: Antiproliferative activity against human IGROV-1 cells assessed as cell growth at 10 uM incubated for 48 hrs by sulforhodamine B assay relative to control; format: functional; conditions: read-out: Activity
U-251 = experiment: Antiproliferative activity against human U-251 cells assessed as cell growth at 10 uM incubated for 48 hrs by sulforhodamine B assay relative to control; format: functional; conditions: read-out: Activity
KM12 = experiment: Antiproliferative activity against human KM12 cells assessed as cell growth at 10 uM incubated for 48 hrs by sulforhodamine B assay relative to control; format: functional; conditions: read-out: Activity
RXF 393 = experiment: Antiproliferative activity against human RXF 393 cells assessed as cell growth at 10 uM incubated for 48 hrs by sulforhodamine B assay relative to control; format: functional; conditions: read-out: Activity
786-0 = experiment: Antiproliferative activity against human 786-0 cells assessed as cell growth at 10 uM incubated for 48 hrs by sulforhodamine B assay relative to control; format: functional; conditions: read-out: Activity
PNT2 = experiment: Cytotoxicity against human PNT2 cells assessed as reduction in cell viability at 4 times IC50 measured after 72 hrs by crystal violet staining based assay; conditions: pnt2, 72 h
NCI-H460 [2] = experiment: Induction of apoptosis in human NCI-H460 cells assessed as early apoptotic cells at 10 uM measured after 72 hrs by Annexin V-FITC and propidium iodide staining based flow cytometry analysis (Rvb= 6.61%); format: functional
NCI-H460 [3] = experiment: Effect on p53 expression in human NCI-H460 cells at 1 to 20 uM measured after 72 hrs by western blot analysis; format: functional, cell-based; conditions: dose 1-20 µM
[4] = target: MAP kinase p38 (Homo sapiens) (UniProt O15264+Q15759+Q16539+P53778); experiment: Inhibition of p38 MAPK phosphorylation in human NCI-H460 cells at 20 uM measured after 72 hrs by western blot analysis; format: cell-based
NCI-H460 [5] = experiment: Induction of apoptosis in human NCI-H460 cells assessed as early apoptotic cells at 20 uM measured after 72 hrs by Annexin V-FITC and propidium iodide staining based flow cytometry analysis (Rvb= 6.61%); format: functional
NCI-H460 [6] = experiment: Cell cycle arrest in human NCI-H460 cells assessed as accumulation of cells in S phase at 5 uM measured after 72 hrs by propidium iodide/RNase staining based flow cytometry analysis (Rvb= 26.87%); format: functional
NCI-H460 [7] = experiment: Cell cycle arrest in human NCI-H460 cells assessed as accumulation of cells in S phase at 10 uM measured after 72 hrs by propidium iodide/RNase staining based flow cytometry analysis (Rvb= 26.87%); format: functional
NCI-H460 [8] = experiment: Antimigratory activity against human NCI-H460 cells assessed as inhibition of cell migration measured after 24 hrs by wound healing assay; format: functional, cell-based; conditions: dose 5-20 µM
NCI-H460 [9] = experiment: Induction of apoptosis in human NCI-H460 cells assessed as late apoptotic cells at 5 uM measured after 72 hrs by Annexin V-FITC and propidium iodide staining based flow cytometry analysis (Rvb= 6.93%); format: functional
NCI-H460 [10] = experiment: Cell cycle arrest in human NCI-H460 cells assessed as accumulation of cells in S phase at 20 uM measured after 72 hrs by propidium iodide/RNase staining based flow cytometry analysis (Rvb= 26.87%); format: functional
NCI-H460 [11] = experiment: Cell cycle arrest in human NCI-H460 cells assessed as accumulation of cells in G1 phase at 20 uM measured after 72 hrs by propidium iodide/RNase staining based flow cytometry analysis (Rvb= 62.9%); format: functional
NCI-H460 [12] = experiment: Cell cycle arrest in human NCI-H460 cells assessed as accumulation of cells in G1 phase at 10 uM measured after 72 hrs by propidium iodide/RNase staining based flow cytometry analysis (Rvb= 62.9%); format: functional
NCI-H460 [13] = experiment: Inhibition of cell proliferation in human NCI-H460 cells assessed as reduction in PCNA expression measured after 72 hrs by western blot analysis; format: functional, cell-based; conditions: dose 1-20 µM
NCI-H460 [14] = experiment: Induction of apoptosis in human NCI-H460 cells assessed as decrease in pro-caspase3 expression level at 1 to 20 uM measured after 72 hrs by western blot analysis; format: functional, cell-based; conditions: dose 1-20 µM
NCI-H460 [15] = experiment: Induction of ROS production in human NCI-H460 cells at 20 uM incubated for 24 hrs by CM-H2DCFDA probe based flow cytometry analysis; format: functional, cell-based
NCI-H460 [16] = experiment: Cell cycle arrest in human NCI-H460 cells assessed as accumulation of cells in G2/M phase at 20 uM measured after 72 hrs by propidium iodide/RNase staining based flow cytometry analysis (Rvb= 10.22%); format: functional

| Structure (SMILES) | growth at 10 µM (SN12C) [%] | growth at 10 µM (HCC 2998) [%] | growth at 10 µM (HCT-116) [%] | growth at 10 µM (NCI-H322M) [%] | growth at 10 µM (OVCAR-8) [%] | growth at 10 µM (SK-MEL-2) [%] | growth at 10 µM (NCI-H460 [1]) [%] | growth at 10 µM (HT-29) [%] | growth at 10 µM (SR) [%] | growth at 10 µM (MDA-MB-231) [%] | growth at 10 µM (UACC-62) [%] | growth at 10 µM (SK-MEL-5) [%] | growth at 10 µM (MOLT-4) [%] | growth at 10 µM (UACC-257) [%] | growth at 10 µM (SNB-75) [%] | growth at 10 µM (SK-OV-3) [%] | growth at 10 µM (IGROV-1) [%] | growth at 10 µM (U-251) [%] | growth at 10 µM (KM12) [%] | growth at 10 µM (RXF 393) [%] | further results |
| --- | --- | --- | --- | --- | --- | --- | --- | --- | --- | --- | --- | --- | --- | --- | --- | --- | --- | --- | --- | --- | --- |
| COc1cc(CNC(=O)CCCC/C=C/C(C)C)ccc1OCc1nnc(Nc2ccccc2F)o1 | 70.5 | 90.8 | 53.5 | 86.1 | 45.2 | 111 | 80.3 | 90 | 67.3 | 63.9 | 65.5 | 86.6 | 82 | 98.2 | 57.8 | 48.6 | 58.4 | 84 | 78.8 | 68.8 | growth at 10 µM (786-0): 12% |
| COc1cc(CNC(=O)CCCC/C=C/C(C)C)ccc1OCc1nnc(SCCc2c[nH]c3ccccc23)o1 | 83.1 | 98 | 70 | 88.7 | 71.3 | 86.7 | 89.8 | 69.7 | 49.3 | 70.6 | 67.5 | 105 | 29.2 | 101 | 83.1 | 85.7 | 73.7 | 80.5 | 73.3 | 54 | growth at 10 µM (786-0): 89.3% |
| COc1cc(CNC(=O)CCCC/C=C/C(C)C)ccc1OCc1nnc(Nc2cccc(Br)c2)o1 | 95.7 | 101 | 67.6 | 98 | 98 | 105 | 97.5 | 97.7 | 67.7 | 78.3 | 67.5 | 89.8 | 83.5 | 105 | 83.5 | 82.6 | 92.9 | 102 | 90.3 | 70.6 | growth at 10 µM (786-0): 95.6% |
| COc1cc(CNC(=O)CCCC/C=C/C(C)C)ccc1OCc1nnc(Nc2ccc([N+](=O)[O-])cc2)o1 | 49 | 83.6 | 24.6 | 54.9 | 25 | 71.9 | 33.5 | 71.7 | 64.2 | 67.1 | 39.6 | 46.3 | 84.2 | 77.6 | 48.7 | 11.8 | 53.5 | 48.6 | 71.7 | 54.1 | Activity (PNT2): Non-Toxic; Activity (NCI-H460 [2]): 8.29%; Activity (NCI-H460 [3]): inactive; inhibition [4]: Active; Activity (NCI-H460 [5]): 21.15%; Activity (NCI-H460 [6]): 28.16%; Activity (NCI-H460 [7]): 29.05%; Activity (NCI-H460 [8]): Dose-dependent effect; Activity (NCI-H460 [9]): 8.07%; Activity (NCI-H460 [10]): 34.83%; Activity (NCI-H460 [11]): 56.45%; Activity (NCI-H460 [12]): 59.13%; inhibition (NCI-H460 [13]): Dose-dependent effect; Activity (NCI-H460 [14]): Active; Activity (NCI-H460 [15]): Active; growth at 10 µM (786-0): 22.2%; Activity (NCI-H460 [16]): 8.706% |
